Data taken from EP0549291A1, “Thymidylate synthase inhibitors” (TAKEDA CHEMICAL INDUSTRIES, LTD., priority 1991, dated 1993).

Legend:
[1] = target: T1, thymidylate synthase (TS) (Mus musculus, UniProt P07607); test: Assay of TS inhibitory activity; format: biochemical; conditions: crude TS fraction from Meth A cells; [H³]dUMP, 37°C, 1 hour; read-out: TS inhibitory activity IC₅₀
T1 construct: A crude fraction of TS was prepared from Meth A fibrosarcoma (Meth A) cells subcultured in vitro; endogenous in cells; host or cells: Meth A fibrosarcoma cells (100,000 x g supernatant of ultrasonicated cells)
T1 sequence (P07607 whole entry): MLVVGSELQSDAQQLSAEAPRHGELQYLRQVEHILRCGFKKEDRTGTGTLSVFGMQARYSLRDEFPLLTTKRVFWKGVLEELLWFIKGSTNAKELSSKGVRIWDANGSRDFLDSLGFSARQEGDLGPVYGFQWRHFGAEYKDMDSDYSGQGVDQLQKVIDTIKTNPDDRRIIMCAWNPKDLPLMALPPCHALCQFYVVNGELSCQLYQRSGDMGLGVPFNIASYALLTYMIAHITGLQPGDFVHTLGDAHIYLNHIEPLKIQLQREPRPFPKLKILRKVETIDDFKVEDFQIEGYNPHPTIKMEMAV
Method: Assay of TS inhibitory activity
A crude fraction of TS was prepared from Meth A fibrosarcoma (Meth A) cells subcultured in vitro. For cell culture, Eagle's minimum essential medium (MEM, Nissui Pharmaceutical) containing 10% fetal bovine serum was used. Cells in the logarithmic growth phase were harvested, washed twice with phosphate buffered saline, suspended in 0.2 M sucrose and 0.01 M Tris-HCl buffer (pH 7.5), ultrasonicated, and centrifuged at 100,000 x g to obtain a supernatant. The protein concentration was determined using a protein dye reagent (Bio-Rad) with bovine γ-globulin as standard protein. Samples with a protein concentration of 100 mg/ml were prepared.
The enzymatic reaction was conducted as follows, using the method described by D. Roberts in Biochemistry 5, 3546 (1966), partially modified. The reaction mixture consisted of 0.058% formaldehyde, 6.78 mM sodium fluoride, 0.2 mM 2-mercaptoethanol, 6.24 mg/ml bovine serum albumin, 80 µM […] (dUMP), 80 µM tetrahydrofolic acid, 2 mg/ml crude TS fraction, and 0.173 M Tris-HCl buffer (pH 7.5). To this mixture was added a varying concentration of each Example compound. To 50 µl of each final mixture was added 540 KBq [H³]dUMP and the resultant mixture was incubated in a 96-well plate at 37°C for 1 hour. After completion of the incubation, 26.65% trichloroacetic acid and 3.33 mg/ml dUMP were added to stop the reaction and 220 µl of 11.4 mg/ml activated charcoal was added. The whole volume was centrifuged and the radioactivity in 100 µl of the supernatant was determined by the liquid scintillation method. Thus, the concentration required to cause 50% inhibition of TS activity (IC₅₀ value) was obtained.

[2] = tested on: Meth A fibrosarcoma (Meth A) cells; test: Assay of antiproliferative activity against Meth A fibrosarcoma (Meth A) cells; format: cell-based; conditions: Mus musculus, 72 hours culture at 37°C and 5% CO₂, cell count with Coulter counter, mean of 3 wells, read-out: Meth A cell growth inhibitory activity IC₅₀
Method: Assay of antiproliferative activity against Meth A fibrosarcoma (Meth A) cells
Meth A cells (2 x 10⁴ cells/ml) prepared in the routine manner were seeded, 2.0 ml per well, in a 12-well plate and subjected to stationary culture at 37°C and 5% CO₂. Each Example compound dissolved at an appropriate concentration was serially diluted 1:2 to 1:10 with MEM (Nissui Pharmaceutical) and added in the medium and again the cells were subjected to stationary culture for 72 hours at 37°C and 5% CO₂. Then, the total cell count at each concentration was determined with a Coulter counter (Coulter Electronics, FL) and the mean value of 3 wells was expressed as cell count per milliliter. The concentration of each compound required to reduce the cell count of the untreated control group to 50% was regarded as the IC₅₀ value of the compound.

Compound	IC50 [1] [nM]	IC50 [2] [nM]
Nc1nc2[nH]cc(Cc3ccc(C(=O)N[C@@H](CCC(=O)O)C(=O)O)s3)c2c(=O)[nH]1 [Example 6, N-[5-(2-amino-4-hydroxy-7H-pyrrolo[2,3-d]pyrimidin-5-yl)methyl-2-thenoyl]-L-glutamic acid]	83	63
Nc1nc(O)c2c(Cc3ccc(C(=O)N[C@@H](CCC(=O)O)C(=O)O)cc3F)c[nH]c2n1 [Example 8, N-[4-(2-amino-4-hydroxy-7H-pyrrolo[2,3-d]pyrimidin-5-yl)methyl-3-fluorobenzoyl]-L-glutamic acid]	490	110
Cn1cc(Cc2ccc(C(=O)N[C@@H](CCC(=O)O)C(=O)O)cc2)c2c(O)nc(N)nc21 [Example 2, N-[4-(2-amino-4-hydroxy-7-methylpyrrolo-[2,3-d]pyrimidin-5-yl)methylbenzoyl]-L-glutamic acid]	860	
Nc1nc(O)c2c(Cc3ccc(C(=O)N[C@@H](CCC(=O)O)C(=O)O)cc3)c[nH]c2n1 [Example 4, N-[4-(2-amino-4-hydroxy-7H-pyrrolo[2,3-d]pyrimidin-5-yl)methylbenzoyl]-L-glutamic acid]		76
CCC(c1ccc(C(=O)N[C@@H](CCC(=O)O)C(=O)O)cc1)c1c[nH]c2nc(N)nc(O)c12 (stereo partly drawn) [Example 12, N-[4-[1-(2-amino-4-hydroxy-7H-pyrrolo[2,3-d]pyrimidin-5-yl)propyl]benzoyl]-L-glutamic acid]		39
C=CC(c1ccc(C(=O)N[C@@H](CCC(=O)O)C(=O)O)cc1)c1c[nH]c2nc(N)nc(O)c12 (stereo partly drawn) [Example 14, N-[4-[1-(2-amino-4-hydroxy-7H-pyrrolo[2,3-d]pyrimidin-5-yl)-2-propenyl]benzoyl]-L-glutamic acid]	37	91
NCC(c1ccc(C(=O)N[C@@H](CCC(=O)O)C(=O)O)cc1)c1c[nH]c2nc(N)nc(O)c12 (stereo partly drawn) [Example 18, N-[4-[1-(2-amino-4-hydroxy-7H-pyrrolo[2,3-d]pyrimidin-5-yl)-2-aminoethyl]benzoyl]-L-glutamic acid]		810
CC(c1ccc(C(=O)N[C@@H](CCC(=O)O)C(=O)O)cc1)c1c[nH]c2nc(N)nc(O)c12 (stereo partly drawn) [Example 10, N-[4-[1-(2-amino-4-hydroxy-7H-pyrrolo[2,3-d]pyrimidin-5-yl)ethyl]benzoyl]-L-glutamic acid]	39	66
Nc1nc(O)c2c(C(C[N+](=O)[O-])c3ccc(C(=O)N[C@@H](CCC(=O)O)C(=O)O)cc3)c[nH]c2n1 (stereo partly drawn) [Example 16, N-[4-[1-(2-amino-4-hydroxy-7H-pyrrolo[2,3-d]pyrimidin-5-yl)-2-nitroethyl]benzoyl]-L-glutamic acid]	590	93
